Values quoted from earlier work in patent US20200323830A1, “TREATMENT OF VIRAL HEMORRHAGIC FEVERS WITH ETORICOXIB” (priority 2019, published 2020).
Like-named read-outs stand apart in the source and are kept apart here.

Legend:
[1] = dengue infection
[2] = chronic therapy, 4 grams daily
[3] = dose of more than 60 mg/kg/day before admission, dengue subjects
[4] = intake within 24 h, dengue subjects
[5] = for incidence of joint bleeding: 90 mg, hemophilic arthropathy
[6] = oral, once daily
[7] = not given; remark: listed apart in the source
[8] = chronic use for up to one year
[9] = in vivo
[10] = target: T1, COX-1 activity in circulating platelets (Homo sapiens, UniProt P23219); conditions: therapeutic doses, healthy subjects
T1 construct: COX-1 activity in circulating platelets; endogenous in cells; host or cells: circulating platelets of healthy subjects

[11] = versus placebo, acute pain after surgery
[12] = test system: platelet aggregation or bleeding time
[13] = humans; similar to diclofenac and ibuprofen
[14] = monkeys; similar to diclofenac and ibuprofen

T1 sequence (P23219 24-599): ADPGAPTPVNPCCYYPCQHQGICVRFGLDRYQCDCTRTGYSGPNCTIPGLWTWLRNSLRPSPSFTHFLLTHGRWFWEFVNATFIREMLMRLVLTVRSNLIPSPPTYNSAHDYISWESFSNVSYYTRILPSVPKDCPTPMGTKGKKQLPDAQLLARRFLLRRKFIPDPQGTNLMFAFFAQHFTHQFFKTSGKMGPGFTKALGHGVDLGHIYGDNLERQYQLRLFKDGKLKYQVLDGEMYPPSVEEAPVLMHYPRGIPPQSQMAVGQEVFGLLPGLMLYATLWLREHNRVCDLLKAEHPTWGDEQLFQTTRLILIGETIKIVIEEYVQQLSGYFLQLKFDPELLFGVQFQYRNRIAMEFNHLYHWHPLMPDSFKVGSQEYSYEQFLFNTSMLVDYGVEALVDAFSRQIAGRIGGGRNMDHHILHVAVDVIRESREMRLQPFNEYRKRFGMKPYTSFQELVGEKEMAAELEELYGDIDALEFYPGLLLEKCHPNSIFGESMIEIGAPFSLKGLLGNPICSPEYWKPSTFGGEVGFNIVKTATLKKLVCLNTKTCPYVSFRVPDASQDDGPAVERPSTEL

**Q.** For CC(=O)Nc1ccc(O)cc1 [acetaminophen/paracetamol], which transaminase elevation ([1]; median daily dose 1.5 g) is on record?
**A.** caused transaminase elevation

**Q.** And the “pain scores, analgesic intake, length of stay, duration of fever” value ([1]; versus placebo)?
**A.** not significantly different from placebo

**Q.** And the “persons with peak serum aminotransferase values ≥3 times the upper normal limit” value [2]?
**A.** 39%

**Q.** And the “share of all cases of acute liver failure” value (academic centers of the Acute Liver Failure Study Group, 2005)?
**A.** 42%

**Q.** What about the “share of all cases of acute liver failure” value (population-based, metropolitan Atlanta, 2007) of the same compound?
**A.** 41%

**Q.** What about the occurrence of hepatitis [3] of the same compound?
**A.** significantly associated with the occurrence of hepatitis

**Q.** What about the transaminase elevation [4] of the same compound?
**A.** significantly associated with transaminase elevation

**Q.** Which results are given for Cc1ccc(-c2ncc(Cl)cc2-c2ccc(S(C)(=O)=O)cc2)cn1 [etoricoxib, 5-chloro-2-(6-methylpyridin-3-yl)-3-[4-(trideuteriomethylsulfonyl)phenyl]pyridine]?
**A.** incidence of joint bleeding ([5]; 6-month extension): 78.9%; incidence of joint bleeding ([5]; 6-week portion): 66.7%; serious AEs ([5]; placebo-controlled portion, two events, both on etoricoxib): 3.9%; half-life [6]: approximately 22 hours; median onset of action ([7]; acute pain settings): 24 min; risk of bleeding ([7]; acute pain studies): not associated with an increased risk of bleeding; duration of sustained efficacy ([7]; single dose): 24 h; subjects with elevated ALT or AST (≥3 times the upper limit of normal) [8]: 1%; GI tolerability and safety events [9]: significant improvements; effect on COX-1 activity in circulating platelets [10]: does not affect COX-1 activity in circulating platelets; fever AEs [11]: fewer fever AEs than subjects on placebo; effect on platelet aggregation or bleeding time ([12]; doses up to 500 mg): does not affect platelet aggregation or bleeding time; effects on bleeding time or platelet aggregation ([12]; ex vivo whole-blood assays after multiple oral doses): no important effects on bleeding time or platelet aggregation; COX-2 versus COX-1 selectivity (COX-2 versus COX-1): 106 fold

**Q.** Which antipyretic activity [13] does the source give for CS(=O)(=O)c1ccc(C2=C(c3ccccc3)C(=O)OC2)cc1 [rofecoxib] here?
**A.** antipyretic activity

**Q.** And the antipyretic activity [14]?
**A.** antipyretic activity
